# Results from patent US20210308089A1, “METHODS OF TREATING AND/OR PREVENTING VIRAL INFECTIONS AND/OR DISEASES CAUSED BY VIRUSES IN A SUBJECT IN NEED THEREOF” (priority 2020, published 2021).
# Test system: statin-treated hypertriglyceridemic patients with cardiovascular disease or at high risk for cardiovascular disease
# Assay: REDUCE-IT: safety, treatment-emergent adverse events (incl. bleeding, atrial fibrillation/flutter, gastrointestinal)
# [1] = REDUCE-IT safety population, 4 g/day
# [2] = serious bleeding TEAE, % of N = 4089
# [3] = serious bleeding TEAE, number (%) of N = 4089
# [4] = serious bleeding TEAE, patients, N = 4089
structure (smiles),measurement,setting,value
"CC/C=C\C/C=C\C/C=C\C/C=C\C/C=C\CCCC(=O)OCC [icosapent ethyl, eicosapentaenoic acid ethyl ester]",Serious TEAE,% of N = 4089,(30.6%)
same,Serious TEAE Leading to Death,% of N = 4089,(2.3%)
same,Serious TEAE Leading to Withdrawal of Study Drug,% of N = 4089,(2.2%)
same,Subjects with at Least One TEAE,% of N = 4089,(81.8%)
same,TEAE Leading to Withdrawal of Study Drug,% of N = 4089,(7.9%)
same,"Pneumonia, serious treatment-emergent adverse event: % of patients","N = 4089, safety population",2.6%
same,"Pneumonia, serious treatment-emergent adverse event: number of patients","N = 4089, safety population",105
same,"Anemia, adverse event rate",[1],4.7%
same,"Atrial fibrillation, adverse event rate",[1],5.3%
same,"Diarrhea, adverse event rate",[1],9%
same,"Gastrointestinal adverse events, rate",[1],33.0%
same,"Peripheral edema, adverse event rate",[1],6.5%
same,Atrial fibrillation or flutter requiring hospitalization (prespecified adjudicated tertiary endpoint),"REDUCE-IT, 4 g/day",3.1%
same,Fatal bleeding events,"REDUCE-IT, 4 g/day",no fatal bleeding events
same,Gastrointestinal bleeding (serious),"REDUCE-IT, 4 g/day",1.5%
same,Serious central nervous system bleeding,"REDUCE-IT, 4 g/day",0.3%
same,Tolerability,"REDUCE-IT, 4 g/day",well tolerated
same,"Treatment-emergent serious adverse events for bleeding, rate","REDUCE-IT, 4 g/day",2.7%
same,Gastrointestinal disorders,"TEAE, system organ class, number (%) of N = 4089",1350 (33.0%)
same,Anemia,"TEAE, number (%) of N = 4089",191 (4.7%)
same,Angina pectoris,"TEAE, number (%) of N = 4089",200 (4.9%)
same,Arthralgia,"TEAE, number (%) of N = 4089",313 (7.7%)
same,Atrial fibrillation,"TEAE, number (%) of N = 4089",215 (5.3%)
same,Back pain,"TEAE, number (%) of N = 4089",335 (8.2%)
same,Bronchitis,"TEAE, number (%) of N = 4089",306 (7.5%)
same,Cataract,"TEAE, number (%) of N = 4089",233 (5.7%)
same,Chest pain,"TEAE, number (%) of N = 4089",273 (6.7%)
same,Constipation,"TEAE, number (%) of N = 4089",221 (5.4%)
same,Cough,"TEAE, number (%) of N = 4089",241 (5.9%)
same,Diarrhea,"TEAE, number (%) of N = 4089",367 (9.0%)
same,Dizziness,"TEAE, number (%) of N = 4089",235 (5.7%)
same,Dyspnea,"TEAE, number (%) of N = 4089",254 (6.2%)
same,Fatigue,"TEAE, number (%) of N = 4089",228 (5.6%)
same,Gastroesophageal Reflux Disease,"TEAE, number (%) of N = 4089",124 (3.0%)
same,Hypertension,"TEAE, number (%) of N = 4089",320 (7.8%)
same,Influenza,"TEAE, number (%) of N = 4089",263 (6.4%)
same,Nasopharyngitis,"TEAE, number (%) of N = 4089",314 (7.7%)
same,Nausea,"TEAE, number (%) of N = 4089",190 (4.6%)
same,Osteoarthritis,"TEAE, number (%) of N = 4089",241 (5.9%)
same,Pain in extremity,"TEAE, number (%) of N = 4089",235 (5.7%)
same,Peripheral edema,"TEAE, number (%) of N = 4089",267 (6.5%)
same,Pneumonia,"TEAE, number (%) of N = 4089",263 (6.4%)
same,Upper respiratory tract infection,"TEAE, number (%) of N = 4089",312 (7.6%)
same,Urinary tract infection,"TEAE, number (%) of N = 4089",253 (6.2%)
same,Positively Adjudicated Atrial Fibrillation/Flutter,"hospitalization for atrial fibrillation or atrial flutter, number (%) of N = 4089",127 (3.1%)
same,Serious TEAE,"number of subjects, N = 4089",1252
same,Serious TEAE Leading to Death,"number of subjects, N = 4089",94
same,Serious TEAE Leading to Withdrawal of Study Drug,"number of subjects, N = 4089",88
same,TEAE Leading to Withdrawal of Study Drug,"number of subjects, N = 4089",321
same,Subjects with at Least One TEAE,"number of subjects, Safety population N = 4089",3343
same,Aortic Aneurysm Rupture,[2],(0.0%)
same,Brain Contusion,[2],(0.0%)
same,Catheter Site Hemorrhage,[2],(0.0%)
same,Central Nervous System Bleeding,[2],(0.3%)
same,Cerebral Hemorrhage,[2],(0.0%)
same,Cystitis Hemorrhagic,[2],(0.0%)
same,Diverticulitis Intestinal Hemorrhagic,[2],(0.0%)
same,Diverticulum Intestinal Hemorrhagic,[2],(0.1%)
same,Duodenal Ulcer Hemorrhage,[2],(0.0%)
same,Ecchymosis,[2],(0.0%)
same,Epistaxis,[2],(0.2%)
same,Esophageal Hemorrhage,[2],(0.0%)
same,Extravasation Blood,[2],(0.0%)
same,Gastric Hemorrhage,[2],(0.0%)
same,Gastric Ulcer Hemorrhage,[2],(0.1%)
same,Gastrointestinal Angiodysplasia Hemorrhagic,[2],(0.0%)
same,Gastrointestinal Bleeding,[2],(1.5%)
same,Gastrointestinal Hemorrhage,[2],(0.6%)
same,Genital Hemorrhage,[2],(0.0%)
same,Hemarthrosis,[2],(0.0%)
same,Hematemesis,[2],(0.1%)
same,Hematochezia,[2],(0.0%)
same,Hematoma,[2],(0.0%)
same,Hematuria,[2],(0.2%)
same,Hemoptysis,[2],(0.0%)
same,Hemorrhagic Anemia,[2],(0.1%)
same,Hemorrhagic Duodenitis,[2],(0.0%)
same,Hemorrhagic Transformation Stroke,[2],(0.0%)
same,Hemorrhoidal Hemorrhage,[2],(0.1%)
same,Hemothorax,[2],(0.0%)
same,Immune Thrombocytopenic Purpura,[2],(0.0%)
same,Intra-Abdominal Hemorrhage,[2],(0.0%)
same,Intracranial Hemorrhage,[2],(0.0%)
same,Large Intestinal Hemorrhage,[2],(0.0%)
same,Lower Gastrointestinal Hemorrhage,[2],(0.1%)
same,Mallory-Weiss Syndrome,[2],(0.0%)
same,Melaena,[2],(0.1%)
same,Menorrhagia,[2],(0.0%)
same,Mouth Hemorrhage,[2],(0.0%)
same,Other Bleeding,[2],(1.0%)
same,Pancreatitis Hemorrhagic,[2],(0.0%)
same,Patients with Bleeding-Related Disorders,[2],(2.7%)
same,Peptic Ulcer Hemorrhage,[2],(0.0%)
same,Pericardial Hemorrhage,[2],(0.0%)
same,Post Procedural Hematoma,[2],(0.0%)
same,Post Procedural Hematuria,[2],(0.0%)
same,Post Procedural Hemorrhage,[2],(0.1%)
same,Rectal Hemorrhage,[2],(0.2%)
same,Renal Hemorrhage,[2],(0.0%)
same,Retinal Hemorrhage,[2],(0.0%)
same,Retroperitoneal Hematoma,[2],(0.0%)
same,Retroperitoneal Hemorrhage,[2],(0.0%)
same,Shock Hemorrhagic,[2],(0.0%)
same,Subarachnoid Hemorrhage,[2],(0.0%)
same,Subdural Hematoma,[2],(0.2%)
same,Subdural Hemorrhage,[2],(0.0%)
same,Traumatic Hematoma,[2],(0.0%)
same,Traumatic Intracranial Hemorrhage,[2],(0.0%)
same,Ulcer Hemorrhage,[2],(0.0%)
same,Upper Gastrointestinal Hemorrhage,[2],(0.1%)
same,Urinary Bladder Hemorrhage,[2],(0.0%)
same,Bleeding related disorders,[3],111 (2.7%)
same,Central Nervous System Bleeding,[3],14 (0.3%)
same,Gastrointestinal Bleeding,[3],62 (1.5%)
same,Other Bleeding,[3],41 (1.0%)
same,Aortic Aneurysm Rupture,[4],1
same,Brain Contusion,[4],0
same,Catheter Site Hemorrhage,[4],0
same,Central Nervous System Bleeding,[4],14
same,Cerebral Hemorrhage,[4],0
same,Cystitis Hemorrhagic,[4],2
same,Diverticulitis Intestinal Hemorrhagic,[4],0
same,Diverticulum Intestinal Hemorrhagic,[4],3
same,Duodenal Ulcer Hemorrhage,[4],2
same,Ecchymosis,[4],1
same,Epistaxis,[4],7
same,Esophageal Hemorrhage,[4],0
same,Extravasation Blood,[4],1
same,Gastric Hemorrhage,[4],1
same,Gastric Ulcer Hemorrhage,[4],3
same,Gastrointestinal Angiodysplasia Hemorrhagic,[4],1
same,Gastrointestinal Bleeding,[4],62
same,Gastrointestinal Hemorrhage,[4],26
same,Genital Hemorrhage,[4],1
same,Hemarthrosis,[4],0
same,Hematemesis,[4],3
same,Hematochezia,[4],1
same,Hematoma,[4],1
same,Hematuria,[4],8
same,Hemoptysis,[4],1
same,Hemorrhagic Anemia,[4],4
same,Hemorrhagic Duodenitis,[4],0
same,Hemorrhagic Transformation Stroke,[4],1
same,Hemorrhoidal Hemorrhage,[4],3
same,Hemothorax,[4],1
same,Immune Thrombocytopenic Purpura,[4],0
same,Intra-Abdominal Hemorrhage,[4],1
same,Intracranial Hemorrhage,[4],0
same,Large Intestinal Hemorrhage,[4],1
same,Lower Gastrointestinal Hemorrhage,[4],5
same,Mallory-Weiss Syndrome,[4],1
same,Melaena,[4],3
same,Menorrhagia,[4],1
same,Mouth Hemorrhage,[4],0
same,Other Bleeding,[4],41
same,Pancreatitis Hemorrhagic,[4],1
same,Patients with Bleeding-Related Disorders,[4],111
same,Peptic Ulcer Hemorrhage,[4],1
same,Pericardial Hemorrhage,[4],0
same,Post Procedural Hematoma,[4],1
same,Post Procedural Hematuria,[4],0
same,Post Procedural Hemorrhage,[4],5
same,Rectal Hemorrhage,[4],10
same,Renal Hemorrhage,[4],0
same,Retinal Hemorrhage,[4],1
same,Retroperitoneal Hematoma,[4],0
same,Retroperitoneal Hemorrhage,[4],1
same,Shock Hemorrhagic,[4],2
same,Subarachnoid Hemorrhage,[4],2
same,Subdural Hematoma,[4],9
same,Subdural Hemorrhage,[4],2
same,Traumatic Hematoma,[4],2
same,Traumatic Intracranial Hemorrhage,[4],0
same,Ulcer Hemorrhage,[4],1
same,Upper Gastrointestinal Hemorrhage,[4],3
same,Urinary Bladder Hemorrhage,[4],1
